Experimental data as given in US20090196854A1, “METHODS AND COMPOSITIONS FOR USE OF CRL 5803 CELLS FOR EXPRESSION OF BIOTHERAPEUTICS AND ENCAPSULATED CELL-BASED DELIVERY” (priority 2008, published 2009).
Converted amounts (≈) assume the structure as drawn.

Experiments:
CRL5816 cells = assay: sensitivity to killing by 2-deoxyglucose; type: cell-based, human; conditions: 10 mM 2-deoxyglucose, 4 days
HTB10 = assay: sensitivity to killing by 2-deoxyglucose; type: cell-based, human
Description: (§1) The glucose requirements of CRL 5803 was also determined and compared to the HTB10 and CRL5816 cell lines.
(§2) The 2-deoxyglucose sensitivity was tested with the 4 cell lines being screened for CNS use with doses of 2-DG from 1-20 mM, the HTB10 cell line was also included in this screen as a positive control for 2-DG killing. […] However, 2-DG did result in slowed growth, and concentrations producing 50% inhibition (IC50) were calculated (based on a four-parameter fit of the data).

CRL 5803 = assay: sensitivity to killing by 2-deoxyglucose; type: cell-based, human; conditions: up to 20 mM 2-DG
Description: as §1

[1] = tested on: four candidate cell lines; assay: 2-deoxyglucose sensitivity (growth) of cell lines screened for CNS use; type: cell-based, human
Description: as §2

[2] = tested on: all cell lines except for ARPE-19 and A2058 (CRL 5803, CCL-205, CRL1440); assay: sensitivity to 5-FU, growth monitored with resazurin; type: cell-based, human; conditions: all cell lines except ARPE-19 and A2058
BON cell line = assay: 5-FU cytotoxicity screen; type: cell-based; conditions: Homo sapiens, neutral red endpoint after 5-7 days, read-out: concentration required to kill 50% of the cells
Description: Drug Exposure and elimination of BON cell line: The drug 5-FU was dissolved in DMSO at a concentration of 0.5 M, and this stock used to make media with micromolar concentrations of the drug ([…]). Cells plated in 24 or 48 well plates in growth phase were cultured with 5-FU supplemented medium for 1-2 weeks. […] This growth measurement was conducted during exposure and if cells grew or survived, growth was followed in the weeks subsequent to removal of 5-FU.
In initial screening, an endpoint assay of viability was performed with the uptake of neutral red (50 μg/ml for 1 h) after 5-7 days, later studies of the selected cell lines used resazurin to monitor growth, as well as viable cell mass.

A2058 = tested on: A2058
Description: (§3) The newly selected cell types were then screened for r sensitivity to 5-fluorouracil (5-FU). This screening was accomplished by plating the cell lines in 48 well plates, and after overnight attachment adding varying concentrations of 5-FU from 0-500 μM. The growth of the cells was then monitored at 1-2 day intervals with the fluorescent substrate resazurin.

K3.31 = assay: 5FC and 5FU dose-response in BDNF-expressing CRL 5803 line and CD transfectants; type: cell-based; conditions: Homo sapiens; K3.31; read-out: IC50 for 5FU
Description: (§4) CRL 5803 cells expressing BDNF and CD: The CRL 5803 cell line was transfected with BDNF and clones expressing BDNF were selected. These selected clones were expanded to provide cells for transfections with cytosine deaminase plasmid (CX014). Four CD gene transfection studies were performed with three different BDNF-expressing cell lines. For each cell line at least 24 resistant clones were picked and screened for sensitivity to 100 μM 5FC. The clones with the lowest survival in 5FC (as percent of control wells) were then expanded for dose-response studies with 5FC and 5FU. Cytotoxicity of 5FC was used as an indication of CD gene expression, and this screen provided 6-9 clones per transfection. The IC50 for 5FU indicated the maximum potential cytotoxicity of the prodrug, 5FC, in cells expressing sufficient levels of CD gene and protein.

K3.4 = assay: as above; type: cell-based; conditions: Homo sapiens, read-out: IC50 for 5-FU
Description: as §4

K3.3 = assay: as above; type: cell-based; conditions: Homo sapiens; K3.3; read-out: IC50 for 5FU
Description: as §4

ARPE-19 cells = assay: sensitivity to 5-FU, growth monitored with resazurin
Description: as §3

CRL1440 = type: cell-based, human
Description: (§5) The cell lines were plated in 48 well plates at an appropriate dilution of cells for each cell line to provide for rapid entry into log phase of growth. The various concentrations of the selection drugs were added so that the drugs were present at the initiation of log phase growth and viable cells were determined after 7-10 days of culture. The screening used data for functional mass at the end of the study to express viable cells as a percentage of the vehicle, or no-treatment control wells. […] The % viable cell mass data was plotted, and fitted typically with a four-parameter equation. The fitted equation was used to calculate the IC50 dose. The drugs tested were G418 (inactivated by neomycin phophotransferase, NPT), hygromycin (inactivated by hygromycin phosphotansferse, HPT), blasticidin (inactivated by blasticidin deaminase, BSD), and zeocin (bound by bleomycin binding protein, BBP). These antibiotics were obtained from Invitrogen/Gibco (Invitrogen SA, Barcelona).
(§6) The drugs, G418, Zeocin, hygromycin, and blasticidin were obtained and used as described earlier. The most important aspect of these studies was to identify the concentration needed to kill all non-transfected cells.

CRL5803 = type: cell-based, human
Description: as §5, §6

CCL205 = type: cell-based, human
Description: as §5, §6

ARPE-19 = type: cell-based, human
Description: as §5, §6

ARPE-19 polyclones = assay: Blsd dose-response of growth in BSD-transfected polyclones; type: cell-based, human
Excerpt: (§7) Each cell line was transfected under conditions optimized for that specific cell line, and with each of three different constructs. Within 2-3 days of transfection the cultures were selected with blasticidin at the appropriate selection concentration identified for that cell line.
(§8) The three plasmid constructs tested differed in the promoter used to control the expression of the BSD gene (commercial plasmids from Invitrogen). At the end of selection (10-14 days) the surviving cells were passaged to establish a B1sd-resistant polyclone. Each Blsd-resistant polyclonal cell line was analyzed for the capacity to grow in Blsd at varying concentrations. The Blsd dose-response curve was plotted (growth vs dose) and the IC50 calculated for each promoter construct. The IC50 was taken to indicate the average BSD enzyme expression and activity level, and to indicate the relative activity of the regulatory elements in each cell line context.

CCL205 polyclones = assay: as above; type: cell-based, human
Excerpt: as §7, §8

CRL1440 polyclones = assay: as above; type: cell-based, human
Excerpt: as §7, §8

CRL 5803 polyclones = assay: as above; type: cell-based, human; conditions: for IC50 for Blsd-resistant growth: CRL 5803
Excerpt: as §7, §8

CRL5867 = assay: selection drug and ouabain sensitivity screen; type: cell-based, human; conditions: resistant if IC50 >1000 μg/ml (G418, hygromycin), ouabain 10^-4 M range
Description: (§9) The cell lines were plated in 48 well plates at an appropriate dilution of cells for each cell line to provide for rapid entry into log phase of growth. The various concentrations of the selection drugs were added so that the drugs were present at the initiation of log phase growth and viable cells were determined after 7-10 days of culture. The screening used data for functional mass at the end of the study to express viable cells as a percentage of the vehicle, or no-treatment control wells. Each treatment concentration was based on results for at least 3-4 wells. The % viable cell mass data was plotted, and fitted typically with a four-parameter equation. The fitted equation was used to calculate the IC50 dose. The drugs tested were G418 (inactivated by neomycin phophotransferase, NPT), hygromycin (inactivated by hygromycin phosphotansferse, HPT), blasticidin (inactivated by blasticidin deaminase, BSD), and zeocin (bound by bleomycin binding protein, BBP). These antibiotics were obtained from Invitrogen/Gibco (Invitrogen SA, Barcelona). Cells were considered to be resistant if the IC50 was >1000 μg/ml for G418, hygromycin, and zeocin, or concentrations >20 μg/ml for blasticidin. Although ouabain is not a classical selection drug, the rodent gene for Na—K ATPase shifts the sensitivity into the 10^−4 M range, while human cells are sensitive in the 10^−9 to 10^−6 M range, thus IC50s in the 10^−4 M range were taken to indicate resistance.

CRL1803 = assay: selection drug and ouabain sensitivity screen; type: cell-based, human; conditions: ouabain IC50 in the 10^-4 M range taken as resistance
Description: as §9

CRL5808 = assay: selection drug and ouabain sensitivity screen; type: cell-based, human; conditions: ouabain IC50 in the 10^-4 M range taken as resistance
Description: as §9

[3] = tested on: human cell lines (CCL205, A2058, CRL1440, ARPE-19, CRL 5803); type: cell-based

## O=CC[C@@H](O)[C@H](O)[C@H](O)CO [2-DG, 2-deoxyglucose]
CRL5816 cells
  viable cells after 2-deoxyglucose: no detectable viable cells
HTB10; HTB10 positive control, doses 1-20 mM
  killing by 2-DG: killed with the lowest concentration
HTB10; Homo sapiens, HTB10, read-out: 2-DG concentration for 50% killing
  IC50: 600 µM
CRL 5803
  sensitivity to killing by 2-deoxyglucose: nor was it sensitive to killing
[1]; Homo sapiens, range over the cell lines, four-parameter fit, read-out: concentrations producing 50% inhibition (IC50) of growth
  IC50: 5000 to 11000 µM
[1]; doses of 2-DG from 1-20 mM
  killing by 2-DG: no killing

## O=c1[nH]cc(F)c(=O)[nH]1 [5-FU, 5-fluorouracil]
[2]
  concentration of 5-FU that resulted in 50% killing: < 35 µM
BON cell line
  IC50: ≥ 500 µM
A2058
  5-FU concentration at which killing began: > 500 µM
  5-FU concentration that did not affect the cell line: < 10 µM
  5-FU concentrations with dominantly cytostatic response: 10 to 100 µM
K3.31
  IC50: 9 ± 1 µM
K3.4
  IC50: 8.5 ± 0.3 µM
K3.3
  IC50: 5 ± 1 µM
ARPE-19 cells
  5-FU concentrations that slowed growth: > 5 µM
  5-FU doses with killing and growth arrest: > 10 µM
  doubling time after 5-FU exposure: 60 h
  lethal dose of 5-FU: 500 µM
ARPE-19 cells; ARPE-19, 2 weeks of exposure
  effect of 100 μM 5-FU: not a lethal dose

## CN(CC[C@H](N)CC(=O)N[C@H]1C=C[C@H](n2ccc(N)nc2=O)O[C@@H]1C(=O)O)C(=N)N [Blasticidin]
CRL1440
  concentration found to kill non-transfected cells: 1 µg/mL
CRL5803
  concentration found to kill non-transfected cells: 2 µg/mL
CCL205
  concentration found to kill non-transfected cells: 1 µg/mL
ARPE-19
  concentration found to kill non-transfected cells: 3 µg/mL
ARPE-19 polyclones; CMV promoter-BSD
  IC50 for Blsd-resistant growth: 12 µg/mL
ARPE-19 polyclones; EF-1a promoter-BSD
  IC50 for Blsd-resistant growth: 4.5 µg/mL
ARPE-19 polyclones; UBq promoter-BSD
  IC50 for Blsd-resistant growth: 3 µg/mL
ARPE-19 polyclones; best promoter
  shift in the inhibitory concentration of Blsd: 8 fold
CCL205 polyclones; CMV promoter
  IC90: > 3 µg/mL
CCL205 polyclones; EF-1 and UBq promoter constructs
  IC90: 0.8 µg/mL (≈ 1.89 µM)
CCL205 polyclones; all three promoter constructs
  growth-based IC50: 0.6 µg/mL
CRL1440 polyclones; CMV promoter-BSD
  IC50 for Blsd-resistant growth: 0.6 µg/mL
CRL1440 polyclones; EF-1 promoter polyclones
  IC50 for Blsd-resistant growth: 5 µg/mL
CRL1440 polyclones; UBq promoter polyclones
  IC50 for Blsd-resistant growth: 21 µg/mL
CRL 5803 polyclones; CMV promoter-BSD
  IC50 for Blsd-resistant growth: 21 µg/mL
CRL 5803 polyclones; EF-1α promoter-BSD
  IC50 for Blsd-resistant growth: 3 µg/mL
CRL 5803 polyclones; UBq promoter-BSD
  IC50 for Blsd-resistant growth: 35 µg/mL
CRL 5803 polyclones; CRL 5803 control cells transfected with NPT plasmid (no BSD)
  IC50 for growth in Blsd: 1 μg-Blsd/ml
CRL 5803 polyclones; CRL 5803 polyclones, best promoter
  shift in the inhibitory concentration of Blsd: 30 fold

## CN[C@@H]1[C@@H](O)[C@@H](O[C@@H]2[C@@H](O)[C@H](O[C@H]3O[C@H]([C@@H](C)O)[C@@H](O)[C@H](O)[C@H]3N)[C@@H](N)C[C@H]2N)OC[C@]1(C)O [G418]
CRL5867
  resistance or sensitivity to drug: sensitive to killing
CRL1440
  concentration found to kill non-transfected cells: 100 µg/mL
CRL5803
  concentration found to kill non-transfected cells: 500 µg/mL
CCL205
  concentration found to kill non-transfected cells: 75 µg/mL
ARPE-19
  concentration found to kill non-transfected cells: 175 µg/mL

## C[C@@H]1O[C@@H](O[C@H]2C[C@@H](O)[C@]3(CO)[C@H]4[C@H](O)C[C@]5(C)[C@@H](C6=CC(=O)OC6)CC[C@]5(O)[C@@H]4CC[C@]3(O)C2)[C@H](O)[C@H](O)[C@H]1O [ouabain]
CRL1803
  resistance or sensitivity to drug: resistant
CRL5808
  resistance or sensitivity to drug: resistant
CRL5867
  resistance or sensitivity to drug: resistance

## O=c1ccc2nc3ccc(O)cc3oc-2c1 [resorufin]
[3]
  concentration toxic with many cells: 1000 to 10000 nM
